Patent US20230002387A1, “2-AMINO-S6-SUBSTITUTED THIOPURINE COMPOUNDS AS INHIBITORS OF THE ENPP1 PROTEIN” (ATEN PORUS LIFESCIENCES PVT. LTD., priority 2019, published 2023)

Biological target: T1, ENPP1 (Homo sapiens, UniProt P22413)
T1 sequence (P22413 1-925): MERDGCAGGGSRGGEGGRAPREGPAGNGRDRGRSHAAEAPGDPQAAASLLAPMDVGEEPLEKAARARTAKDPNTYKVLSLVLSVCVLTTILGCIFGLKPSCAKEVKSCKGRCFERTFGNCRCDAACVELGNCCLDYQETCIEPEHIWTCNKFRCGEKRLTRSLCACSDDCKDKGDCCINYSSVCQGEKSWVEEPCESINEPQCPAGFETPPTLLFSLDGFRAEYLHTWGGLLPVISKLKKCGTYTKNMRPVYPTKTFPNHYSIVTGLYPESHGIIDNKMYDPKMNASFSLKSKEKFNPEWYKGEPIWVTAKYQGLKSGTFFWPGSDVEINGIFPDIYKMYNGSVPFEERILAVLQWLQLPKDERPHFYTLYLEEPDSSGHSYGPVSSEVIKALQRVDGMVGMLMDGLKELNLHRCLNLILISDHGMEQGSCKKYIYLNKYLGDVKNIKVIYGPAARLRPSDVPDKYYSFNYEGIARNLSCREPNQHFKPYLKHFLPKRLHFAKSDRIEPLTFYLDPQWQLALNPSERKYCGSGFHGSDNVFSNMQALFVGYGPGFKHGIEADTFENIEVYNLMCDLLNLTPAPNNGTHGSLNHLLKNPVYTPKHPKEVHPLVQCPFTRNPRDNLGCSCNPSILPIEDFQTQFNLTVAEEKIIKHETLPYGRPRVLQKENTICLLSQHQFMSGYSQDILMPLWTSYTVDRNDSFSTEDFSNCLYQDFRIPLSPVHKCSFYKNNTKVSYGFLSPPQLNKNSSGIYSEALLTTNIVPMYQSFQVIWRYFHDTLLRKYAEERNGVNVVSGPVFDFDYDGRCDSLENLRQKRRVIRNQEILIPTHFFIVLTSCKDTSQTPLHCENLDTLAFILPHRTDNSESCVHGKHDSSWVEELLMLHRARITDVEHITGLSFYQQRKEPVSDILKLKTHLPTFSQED
Assay: Capillary electrophoresis-based NPP assay with ATP as a substrate (ENPP1 inhibition, Ki)
Type: biochemical
Conditions: Ki from IC50 by Cheng-Prusoff, 400 μM ATP
Method: Here, a Capillary Electrophoresis based method was used to determine the IC50 values for ENPP1 Inhibitors for ENNP1 protein.
The inhibitors synthesized were assessed for ENPP1 inhibitory potency against the natural substrate ATP. The enzyme inhibition assays were performed in 10 mM 2-(N-cyclohexylamino)-ethanesulfonic acid (CHES) buffer (pH 10.0) including 1 mM MgCl2, 2 mM CaCl2), and 400 μM of ATP, with different inhibitor concentrations. The reaction mixture was incubated with 20 ng human NPP1 at 37° C. for 30 min in a final volume of 100 μL, and the reactions were stopped by heating at 90° C. for 3 min. Finally, the reaction mixtures were directly measured by capillary electrophoresis (CE). The CE instrumentation and operating conditions were as follows: P/ACE MDQ capillary electrophoresis system (Beckman Instruments, Fullerton, Calif., USA) with a DAD detection system, polyacrylamide-coated capillaries of 40 cm effective length×[…] (id) obtained from CS Chromatographie GmbH (Langerwehe, Germany), 50 mM phosphate buffer (pH 6.5) as running buffer, electrokinetic injection (−6 kV, 60 s), separation voltage of −15 kV. The amounts of AMP produced were measured at 260 nm. Data collection and peak area analysis were performed by 32 Karat software obtained from Beckman Coulter (Fullerton, Calif., USA).
The IC50 values of test compounds were calculated by plotting data in the program Prism 5.0, and the Ki values were calculated from the IC50 values with the Cheng-Prusoff equation (Tables 2-4).

Ki (bin of Table 4) [nM] | Ki (bin of Table 2) [nM] | SMILES
≥ 1000 | – | COc1cc2ncc(Nc3cc(S(N)(=O)=O)ccc3C)nc2cc1OC [Compound 8]
≥ 1000 | – | COc1ccc(NC(=O)Cn2cnc3cnccc32)cc1OC [Compound 11]
≥ 1000 | – | COc1ccc(NC(=O)Cn2cnc3ncnc(N)c32)cc1OC [Compound 18]
≥ 1000 | – | COc1ccc(NC(=O)CSc2nc3ccncc3o2)cc1OC [Compound 22]
≥ 1000 | – | Cc1ccc(S(N)(=O)=O)cc1NC(=O)Cn1cnc2ncnc(N)c21 [Compound 30]
≥ 1000 | – | COc1ccc(NC(=O)Cn2nnc3ncccc32)cc1OC [Compound 35]
≥ 1000 | – | COc1cc2ncc(SCC(=O)Nc3cc(S(N)(=O)=O)ccc3C)nc2cc1OC [Compound 36]
≥ 1000 | – | COc1ccc(NC(=O)CSc2ncnc3[nH]cnc23)cc1OC [Compound 45]
– | ≤ 100 | COc1ccc(NC(=O)CSc2nc(N)nc3nc[nH]c23)cc1OC [Compound 46, 2-((2-amino-7H-purin-6-yl)thio)-N-(3,4-dimethoxyphenyl)acetamide]
– | ≤ 100 | Nc1nc(SCC(=O)Nc2ccc3c(c2)OCO3)c2[nH]cnc2n1 [Compound 78]
≥ 1000 | – | CCOc1ccc(NC(=O)CSc2nc(N)nc3nc[nH]c23)cc1OCC [Compound 84]
≥ 1000 | – | Nc1nc(SCC(=O)Nc2ccc3c(c2)OC(F)(F)O3)c2[nH]cnc2n1 [Compound 90]
≥ 1000 | – | COc1ccc(NC(=O)CSc2nc(N)nc3ncn(C)c23)cc1OC [Compound 98]
≥ 1000 | – | Nc1nc(SCC(=O)NCc2ccccc2)c2[nH]cnc2n1 [Compound 103]
≥ 1000 | – | COc1ccc(CNC(=O)CSc2nc(N)nc3nc[nH]c23)cc1OC [Compound 105]
≥ 1000 | – | COc1ccc(NC(=O)CSc2nc(N)nc3nc[nH]c23)cc1 [Compound 107]
– | ≤ 100 | COc1ccnc(NC(=O)CSc2nc(N)nc3nc[nH]c23)c1 [Compound 109]
– | ≤ 100 | COc1ccc(NC(=O)CSc2nc(N)nc3nc[nH]c23)cc1Cl [Compound 128]
≥ 1000 | – | COc1ccc(NC(=O)CSc2nc(N)nc3nc[nH]c23)cc1C(=O)O [Compound 144]
– | ≤ 100 | COc1ccc(C(=O)NCCSc2nc(N)nc3nc[nH]c23)cc1OC [Compound 148, N-(2-((2-amino-7H-purin-6-yl)thio)ethyl)-3,4-dimethoxybenzamide]
– | ≤ 100 | COc1ccc(NC(=O)CSc2nc(N)nc3nc[nH]c23)nc1OC [Compound 160]
– | ≤ 100 | Nc1nc(SCC(=O)Nc2ccc3ncsc3c2)c2[nH]cnc2n1 [Compound 181]

Ki (bin of Table 4) [nM] | Ki (bin of Table 2) [nM] | SMILES
– | ≤ 100 | Cc1nc2cc(NC(=O)CSc3nc(N)nc4nc[nH]c34)ccc2s1 [Compound 182]
– | ≤ 100 | Nc1nc(SCC(=O)Nc2ccc3ncccc3c2)c2[nH]cnc2n1 [Compound 184]
– | ≤ 100 | Nc1nc(SCC(=O)Nc2ccc3nccnc3c2)c2[nH]cnc2n1 [Compound 185]
– | ≤ 100 | Nc1nc(SCC(=O)Nc2ccc(O)c(Br)c2)c2[nH]cnc2n1 [Compound 194]
– | ≤ 100 | CC(=O)c1cc(NC(=O)CSc2nc(N)nc3nc[nH]c23)ccc1O [Compound 199]
– | ≤ 100 | COc1ccnc(NC(=O)CSc2nc(N)nc3nc[nH]c23)n1 [Compound 201]
– | ≤ 100 | Nc1nc(SCC(=O)Nc2ccc(Cl)c(O)c2)c2[nH]cnc2n1 [Compound 207]
– | ≤ 100 | CCC(Sc1nc(N)nc2nc[nH]c12)C(=O)Nc1ccc(O)c(C(=O)O)c1 (centres unmarked) [Compound 249]
≥ 1000 | – | CC(C)(Sc1nc(N)nc2nc[nH]c12)C(=O)Nc1ccc(O)c(C(=O)O)c1 [Compound 251]
– | ≤ 100 | CC[C@H](Sc1nc(N)nc2nc[nH]c12)C(=O)Nc1ccc(O)c(C(=O)O)c1 [Compound 267]
– | ≤ 100 | CC(C)[C@H](Sc1nc(N)nc2nc[nH]c12)C(=O)Nc1ccc(O)c(C(=O)O)c1 [Compound 269]
– | ≤ 100 | COc1cc(NC(=O)[C@@H](Sc2nc(N)nc3nc[nH]c23)C(C)C)ccc1O [Compound 270]
– | ≤ 100 | COc1cc(NC(=O)[C@H](CC(C)C)Sc2nc(N)nc3nc[nH]c23)ccc1O [Compound 272]
– | ≤ 100 | COc1cc(NC(=O)[C@H](Sc2nc(N)nc3nc[nH]c23)c2ccccc2)ccc1O [Compound 329]
– | ≤ 100 | COc1ccc(NC(=S)CSc2nc(N)nc3nc[nH]c23)cc1OC [Compound 355]
– | ≤ 100 | CC[C@@H](Sc1nc(N)nc2nc[nH]c12)C(=O)Nc1nccc(OC)n1 [Compound 389]
– | ≤ 100 | Nc1nc(SCC(=S)Nc2ccc(O)c(C(=O)O)c2)c2[nH]cnc2n1 [Compound 408]
– | ≤ 100 | CC[C@H](Sc1nc(N)nc2nc[nH]c12)C(=O)Nc1nccc(OC)n1 [Compound 435]
– | ≤ 100 | CC[C@@H](Sc1nc(N)nc2nc[nH]c12)C(=O)Nc1cc(OC)ccn1 [Compound 471]
– | ≤ 100 | CC[C@H](Sc1nc(N)nc2nc[nH]c12)C(=O)Nc1ccc(OC)c(OC)n1 [Compound 472]
– | ≤ 100 | Nc1nc(S[C@@H](CCc2ccccc2)C(=O)Nc2ccc(O)c(C(=O)O)c2)c2[nH]cnc2n1 [Compound 485]
– | ≤ 100 | COc1ccnc(NC(=O)[C@@H](C)Sc2nc(N)nc3nc[nH]c23)n1 [Compound 486]

Ki (bin of Table 4) [nM] | Ki (bin of Table 2) [nM] | SMILES
– | ≤ 100 | COc1ccnc(NC(=O)[C@H](C)Sc2nc(N)nc3nc[nH]c23)n1 [Compound 487]
– | ≤ 100 | COc1ccc(NC(=O)[C@@H](C)Sc2nc(N)nc3nc[nH]c23)nc1OC [Compound 490]
– | ≤ 100 | COc1ccc(NC(=O)[C@H](C)Sc2nc(N)nc3nc[nH]c23)nc1OC [Compound 491]
– | ≤ 100 | CC[C@@H](Sc1nc(N)nc2nc[nH]c12)C(=O)Nc1nc(Cl)cc(OC)n1 [Compound 496]
– | ≤ 100 | COc1ccnc(NC(=O)C(C)(C)Sc2nc(N)nc3nc[nH]c23)n1 [Compound 504]
– | ≤ 100 | COc1ccnc(NC(=O)[C@H](CCc2ccccc2)Sc2nc(N)nc3nc[nH]c23)n1 [Compound 506]
– | ≤ 100 | COc1ccnc(NC(=O)[C@@H](CCc2ccccc2)Sc2nc(N)nc3nc[nH]c23)n1 [Compound 507]
– | ≤ 100 | CC[C@@H](Sc1nc(N)nc2nc[nH]c12)C(=O)Nc1ncc(Br)c(OC)n1 [Compound 508]
– | ≤ 100 | CC[C@H](Sc1nc(N)nc2nc[nH]c12)C(=O)Nc1ncc(Br)c(OC)n1 [Compound 509]
– | ≤ 100 | COc1ccnc(NC(=O)[C@@H](Sc2nc(N)nc3nc[nH]c23)C(C)C)n1 [Compound 510]
– | ≤ 100 | COc1ccnc(NC(=O)[C@H](Sc2nc(N)nc3nc[nH]c23)C(C)C)n1 [Compound 511]
– | ≤ 100 | COc1nc(NC(=O)[C@H](Sc2nc(N)nc3nc[nH]c23)C(C)C)ncc1Br [Compound 514]
– | ≤ 100 | COc1nc(NC(=O)[C@@H](Sc2nc(N)nc3nc[nH]c23)C(C)C)ncc1Br [Compound 515]
– | ≤ 100 | COc1ccnc(NC(=O)[C@@H](Cc2ccccc2)Sc2nc(N)nc3nc[nH]c23)n1 [Compound 516]
– | ≤ 100 | COc1ccnc(NC(=O)[C@H](Cc2ccccc2)Sc2nc(N)nc3nc[nH]c23)n1 [Compound 517]
– | ≤ 100 | COc1nc(NC(=O)C(C)(C)Sc2nc(N)nc3nc[nH]c23)ncc1F [Compound 529]
– | ≤ 100 | CC(C)Oc1ccnc(NC(=O)C(C)(C)Sc2nc(N)nc3nc[nH]c23)n1 [Compound 534]
– | ≤ 100 | CC(C)Oc1nc(NC(=O)C(C)(C)Sc2nc(N)nc3nc[nH]c23)ncc1Br [Compound 543]
– | ≤ 100 | COc1nc(NC(=O)[C@@H](Cc2ccccc2)Sc2nc(N)nc3nc[nH]c23)ncc1Cl [Compound 551]
– | ≤ 100 | COc1nc(NC(=O)[C@@H](Cc2ccccc2)Sc2nc(N)nc3nc[nH]c23)ncc1Br [Compound 552]
– | ≤ 100 | COc1nc(NC(=O)[C@H](Cc2ccccc2)Sc2nc(N)nc3nc[nH]c23)ncc1Cl [Compound 554]
